From patent publication US10590079B2, “Cyano-substituted indoles as LSD1 inhibitors” (Novartis AG, priority 2016, dated 2020)
pIC50: −log10 of the molar value. Read-outs that look alike come from different tables or passages of the source.

Key:
[1] = target: T1, full-length LSD1 (Homo sapiens, UniProt O60341); assay: FL-LSD1 LC-MS assay; type: biochemical; conditions: 0.4 nM FL-LSD1, 0.25 μM FAD, 0.5 μM H3K4me1 peptide, 60 min; read-out: (a) IC50 LC-MS Qualified assay
T1 construct: the full-length LSD1 and 0.5 μM FAD in reaction buffer
Experimental: Representative compounds of the present invention were serially and separately diluted 3-fold in DMSO to obtain a total of twelve concentrations. […] A 5 μL solution of 1 μM of the peptide substrate H3K4me1 (histone H3[1-21]-biotin) in reaction buffer was added to each initiate reaction. […] The conversion ratio of H3K4me1 substrate to the H3K4me0 product was calculated by dividing the peak area of the H3K4me0 peptide by the total peak area of all those two peptides on the assumption that the ionization efficiency of those peptides is the same. The data were then fit to a dose response equation using the program Helios to get the IC50 values of the test compound.

[2] = system: Molm13 cell; assay: Anti-proliferation assay in Molm13 cell; type: cell-based, human; conditions: 6 days, cell titer glow, read-out: (b) IC50 anti proliferative assay in molm13 cell
Experimental: Anti-Proliferation Assay in Molm13 Cell
After cell seeding, a compound of the present invention was added to the cell media (in concentrations ranging from 0 to 100 μM, 3× dilution series). After 6 days, 100 ul/well cell titer glow (Promega, cat#G7573) was added into the cell culture, and luminerence was read on Envision (Pelkin Elmer) to determine the viable cells. The percentage inhibition was calculated against the samples treated with DMSO.

[3] = system: CD11b; assay: CD11b FACS assay; type: cell-based; conditions: Homo sapiens, THP-1; Thp1 cell, 96 hrs; read-out: (c) IC50 CD11b FACS assay
Experimental: Representative compounds of the present invention were serially and separately diluted 5-fold in DMSO to obtain a total of 6 concentrations. Then the compounds were added to Thp1 cell cultured in 96-well round bottom plate (Costar, Cat#3099) at 1:1000 dilution to obtain the highest concentration of 10 μM. The cells were further cultured for 96 hrs before FACS procedure.
FACS protocol: FACS was performed using standard flowcytometry. Cell was collected and washed with FACS buffer twice (2% heat inactivated FBS in PBS) in 96-well plate, and stained with antibody against CD11b, or isotype control, then washed with FACS buffer for 3 times before reading on Guava 8HT (Merck Millipore) Results were analyzed using Flowjo, and mean fluoreance was calculated and normalized to the cells treated with DMSO. The fold value were then analyzed via Graphpad Prism and fit to a dose response curve to get IC50 value of the test compound. Antibodies for FACS: PE mouse IgG1 k chain (BD Bioscience, #555749), PE mouse anti human CD11b (BD Bioscience, #555388)

| pIC50 [1] | pIC50 ([2]; Homo sapiens, MOLM-13, 144 h) | pIC50 [3] | pIC50 [2] | SMILES |
| --- | --- | --- | --- | --- |
| 8.52 | 6.91 | 6.50 | – | COc1ccc(-n2cc(-c3cccc(N)c3C)c3cc(C#N)c(C)cc32)cc1 [Example 65, 3-(3-amino-2-methylphenyl)-1-(4-methoxyphenyl)-6-methyl-1H-indole-5-carbonitrile] |
| 7.82 | 7.12 | – | – | Cc1cc2c(cc1C#N)c(-c1cncc(N)c1C)cn2C1CCC(O)C1 (single isomer, unassigned) [Example 87, Cis-3-(5-amino-4-methylpyridin-3-yl)-1-(3-hydroxycyclopentyl)-6-methyl-1H-indole-5-carbonitrile] |
| 7.85 | 6.03 | – | – | Cc1cc2c(cc1C#N)c(-c1cccc(N)c1C)cn2C1CCNCC1 [Example 97, 3-(3-amino-2-methylphenyl)-6-methyl-1-(piperidin-4-yl)-1H-indole-5-carbonitrile] |
| 7.80 | 7.14 | – | – | Cc1cc2c(cc1C#N)c(-c1cncc(N)c1C)cn2[C@H]1CC[C@H](O)CC1 [Example 94, Trans-3-(5-amino-4-methylpyridin-3-yl)-1-(4-hydroxycyclohexyl)-6-methyl-1H-indole-5-carbonitrile] |
| 8.52 | 7.29 | 6.10 | – | COc1ccc(-n2cc(-c3cncc(N)c3C)c3cc(C#N)c(C)cc32)cc1 [Example 71, 3-(5-amino-4-methylpyridin-3-yl)-1-(4-methoxyphenyl)-6-methyl-1H-indole-5-carbonitrile] |
| 7.22 | 6.57 | – | – | Cc1c(N)cccc1-c1cn(C2CCCC(O)C2)c2ccc(C#N)cc12 (stereo not drawn) [Example 83, Trans-3-(3-amino-2-methylphenyl)-1-(3-hydroxycyclohexyl)-1H-indole-5-carbonitrile] |
| 7.62 | 6.41 | – | – | Cc1c(N)cccc1-c1cn(C2CCC(O)C2)c2ccc(C#N)cc12 (racemic) [Example 80, Trans-3-(3-amino-2-methylphenyl)-1-(3-hydroxycyclopentyl)-1H-indole-5-carbonitrile] |
| 7.82 | – | – | 7.05 | Cc1cc2c(cc1C#N)c(-c1cncc(N)c1C)cn2C1CCC(O)C1 (single isomer, unassigned) [Example 88, Trans-3-(5-amino-4-methylpyridin-3-yl)-1-(3-hydroxycyclopentyl)-6-methyl-1H-indole-5-carbonitrile] |

| SMILES | pIC50 [1] | pIC50 ([2]; Homo sapiens, MOLM-13, 144 h) | pIC50 [3] | pIC50 [2] |
| --- | --- | --- | --- | --- |
| Cc1cc2c(cc1C#N)c(-c1cccc(N)c1C)cn2[C@H]1CC[C@H](O)CC1 [Example 93, Trans-3-(3-amino-2-methylphenyl)-1-(4-hydroxycyclohexyl)-6-methyl-1H-indole-5-carbonitrile] | – | – | 7.14 | – |
| CN[C@H]1CC[C@H](n2cc(-c3cccc(N)c3C)c3cc(C#N)c(C)cc32)CC1 [Example 78, Trans-3-(3-amino-2-methylphenyl)-6-methyl-1-(4-(methylamino)cyclohexyl)-1H-indole-5-carbonitrile] | – | 7.54 | – | – |
| Cc1cc2c(cc1C#N)c(-c1cccc(N)c1C)cn2[C@H]1C[C@H](O)C1 [Example 100, Trans-3-(3-amino-2-methylphenyl)-1-(3-hydroxycyclobutyl)-6-methyl-1H-indole-5-carbonitrile] | – | 7.32 | – | – |
| Cc1cc2c(cc1C#N)c(-c1cccc(N)c1C)cn2[C@H]1CC[C@@H](O)CC1 [Example 95, Cis-3-(3-amino-2-methylphenyl)-1-(4-hydroxycyclohexyl)-6-methyl-1H-indole-5-carbonitrile] | – | 7.31 | – | – |
